This note sets out measurements from patent US10143681B2, “Factor XIa inhibitors” (MERCK SHARP & DOHME CORP., priority 2016, dated 2018).

The target in one data set is Human plasma kallikrein (Homo sapiens (Human), UniProt P03952). In words: Kallikrein Assay. Type of data set: biochemical. The following applies: purified Human plasma kallikrein 0.5 nM, substrate Acetyl-K-P-R-AFC; read-out: P. KLK IC50. The method in brief: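 Purified human plasma kallikrein (0.5 nM final) with Acetyl-K-P-R-AFC substrate ([…]) in pH 7.4 HEPES/NaCl/CaCl2/PEG buffer, room temperature or 37 °C; fluorescence rise read at 405/510 nm under linear conditions after enzyme–inhibitor equilibration. IC50 from four-parameter logistic fit; Ki via Cheng–Prusoff.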

The target in the next data set is human Factor XIa (Homo sapiens (Human), UniProt P03951). In words: Factor XIa Assay. Format: biochemical. The following applies: human Factor XIa 0.04 nM, 30 min pre-incubation at 25° C., substrate GPR-AFC; read-out: FXIa IC50. The method in brief:
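IC50 values were obtained from four-parameter log(inhibitor)-response fits of % inhibition, then converted to Ki using Cheng-Prusoff. GPR-AFC hydrolysis was read at 400/505 nm after 60 min at 25 °C.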

A short description of data set [1]: Rat Pharmacokinetic Screening IV/PO. Type of data set: in vivo. The following applies: male; for clearance: plasma clearance, IV administration; for MRT / bioavailability: plasma; for MRT: mean residence time; for bioavailability: oral bioavailability, oral vs. IV dosing. As for the experimental part:
Plasma pharmacokinetic parameters for clearance (Cl), volume of distribution, mean residence time (MRT) and oral bioavailability (% F) were determined in rats from oral administration and IV administration studies. 4 male rats, typically weighing 225-260 gram, were fasted overnight prior to dosing. Compounds were prepared for oral and IV dosing by addition to a vehicle, depending on the dose used. For a typical preparation, 1 mg per mL (IV) or 1.5 mg per mL (oral) of test compound was added to vehicle comprised of 20% dimethyl sulfoxide (DMSO), 60% polyethylene glycol 400 (PEG400) and 20% water. IV formulation was administered to 2 rats via pre-cannulated jugular vein, and oral dosing was administered to 2 rats via oral gavage. Blood was collected by pre-cannulated artery, typically at predose, 2, 8, 15, 30 min, 1, 2, 4, 6, and 8 hr postdose for IV, and at predose, 15, 30 min, 1, 2, 4, 6, 8 hr for oral dosing. Samples were collected in K2EDTA tubes, stored on ice, and centrifuged. Plasma was transferred to a micro titer plate and stored at −70° C. until analysis. Plasma samples were extracted using protein precipitation and analyzed by liquid chromatography separation followed by mass spec detection (LC-MS/MS), using a standard curve for each compound. Plasma pharmacokinetic parameters were calculated for IV and oral dosing data by non-compartmental methods. Oral bioavailability was determined as the ratio of the dose-normalized plasma area under the curve (AUC) following oral dosing vs. IV dosing.

Data set [2] concerns Human plasma (intrinsic coagulation cascade). In words: Activated Partial Thromboplastin Time (aPTT) Assay. The following applies: concentration that causes a 50% (1.5×) increase of clot time over vehicle. Put shortly: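 Inhibitors spiked into pooled citrated normal-donor human plasma (aPTT 28-40 seconds), run on automated coagulation analyzer: ellagic acid activation of Factor XII, then clot time after recalcification. Reported as concentration giving 50% (1.5×) prolongation over vehicle clot time.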

SMILES strings stand for the structures.

Chain of human Factor XIa (P03951 388-625): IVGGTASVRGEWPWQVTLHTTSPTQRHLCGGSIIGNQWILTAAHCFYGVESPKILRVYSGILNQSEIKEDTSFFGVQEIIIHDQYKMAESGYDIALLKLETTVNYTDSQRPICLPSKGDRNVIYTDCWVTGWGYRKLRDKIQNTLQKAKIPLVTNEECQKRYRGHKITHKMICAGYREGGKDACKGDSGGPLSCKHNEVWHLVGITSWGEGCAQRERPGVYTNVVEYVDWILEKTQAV
Chain of human Factor XIa (P03951 19-387 partner): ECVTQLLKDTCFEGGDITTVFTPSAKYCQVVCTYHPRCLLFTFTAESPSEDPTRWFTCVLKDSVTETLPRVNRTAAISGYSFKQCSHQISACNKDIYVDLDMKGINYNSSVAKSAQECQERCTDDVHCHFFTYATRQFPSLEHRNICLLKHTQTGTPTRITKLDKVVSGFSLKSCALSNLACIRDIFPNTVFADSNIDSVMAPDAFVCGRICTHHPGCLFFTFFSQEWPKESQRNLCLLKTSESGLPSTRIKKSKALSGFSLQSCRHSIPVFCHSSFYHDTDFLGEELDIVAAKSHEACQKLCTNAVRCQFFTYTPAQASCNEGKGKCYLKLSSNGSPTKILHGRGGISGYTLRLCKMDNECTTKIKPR
Chain of Human plasma kallikrein (P03952 391-638): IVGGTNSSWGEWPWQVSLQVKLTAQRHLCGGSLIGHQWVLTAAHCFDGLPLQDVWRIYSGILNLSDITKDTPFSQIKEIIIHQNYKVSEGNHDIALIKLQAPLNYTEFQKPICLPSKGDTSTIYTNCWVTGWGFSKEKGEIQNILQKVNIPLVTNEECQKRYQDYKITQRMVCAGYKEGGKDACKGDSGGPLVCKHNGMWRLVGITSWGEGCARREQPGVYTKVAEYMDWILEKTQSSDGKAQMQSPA
Chain of Human plasma kallikrein (P03952 20-390 partner): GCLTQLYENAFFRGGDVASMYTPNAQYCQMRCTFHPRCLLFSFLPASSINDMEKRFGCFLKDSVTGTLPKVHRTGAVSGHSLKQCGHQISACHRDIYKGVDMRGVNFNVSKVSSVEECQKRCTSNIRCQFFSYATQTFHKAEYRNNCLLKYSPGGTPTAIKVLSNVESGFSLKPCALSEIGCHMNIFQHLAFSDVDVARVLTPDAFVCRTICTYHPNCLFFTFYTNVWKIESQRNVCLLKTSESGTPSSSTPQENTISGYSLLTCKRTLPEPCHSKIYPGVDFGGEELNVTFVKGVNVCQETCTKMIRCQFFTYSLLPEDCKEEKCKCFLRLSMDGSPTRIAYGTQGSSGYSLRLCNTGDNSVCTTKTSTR

A word on the IC50: it is the midpoint of a concentration-inhibition curve. Usually MRT stands for the average time that molecules of a dose stay in the body. Broadly, the bioavailability is dose-corrected exposure relative to a reference, in per cent. A lower bioavailability goes with poor availability. Consider `O=C(O)c1ccc(NC(=O)[C@H](CC2CCC2)c2ccc(-c3c(C(F)F)ccc(Cl)c3F)c[n+]2[O-])cc1` (mixture of isomers) [Example 4, (S)- and (R)-2-(1-((4-Carboxyphenyl)amino)-3-cyclobutyl-1-oxopropan-2-yl)-5-(3-chloro-6-(difluoromethyl)-2-fluorophenyl)pyridine 1-oxide], for which the 50% inhibitory concentration (IC50) at Human plasma kallikrein is 4.7 nM. For the same molecule, the concentration for half-maximal inhibition (IC50) on human Factor XIa is 0.36 nM. In data set [1], this molecule showed a clearance of 5.1 mL/min/kg, a mean residence time (MRT) of 2.5 h and a bioavailability of 34%.
`O=C(O)c1ccc(NC(=O)[C@H](CC2CC2)c2ccc(-c3c(C(F)F)ccc(Cl)c3F)c[n+]2[O-])cc1` (mixture of isomers) [Example 23, (S)- and (R)-2-(1-((4-carboxyphenyl)amino)-3-cyclopropyl-1-oxopropan-2-yl)-5-(3-chloro-6-(difluoromethyl)-2-fluorophenyl)pyridine 1-oxide]: the half-maximal inhibitory concentration (IC50) on Human plasma kallikrein was 22 nM. Besides, the 50% inhibitory concentration (IC50) on human Factor XIa stood at 0.9 nM. Besides, in data set [1], the clearance came to 1.9 mL/min/kg, the mean residence time (MRT) was 2.9 h and the bioavailability is 89%.
With `O=C(O)c1ccc(NC(=O)[C@H](CC2CC2)c2ccc(-c3c(OC(F)F)ccc(Cl)c3F)c[n+]2[O-])cc1` (single isomer, unassigned) [Example 2], the half-maximal inhibitory concentration (IC50) at Human plasma kallikrein is 79 nM. The “aPTT (1.5x)” value in data set [2] is 1.16 µM. In data set [1], this molecule registered a clearance of 5 mL/min/kg, an MRT of 2.5 h and a bioavailability of 56%.
Take `C[C@H]1C[C@@H]1C[C@@H](C(=O)Nc1ccc(C(=O)O)cc1)c1ccc(-c2c(OC(F)F)ccc(Cl)c2F)c[n+]1[O-]` (single isomer, unassigned) [Example 55]: the “aPTT (1.5x)” value in data set [2] amounted to 0.53 µM. For the same molecule, the half-maximal inhibitory concentration (IC50) at human Factor XIa was 0.38 nM. In data set [1], the clearance amounted to 4.3 mL/min/kg, the MRT is 2.6 h and the bioavailability turned out to be 63%.
Consider `O=C(O)c1ccc(NC(=O)C(CC2CC2(F)F)c2ccc(-c3c(C(F)F)ccc(Cl)c3F)c[n+]2[O-])cc1` (single isomer, unassigned) [Example 76, 2-(1-((4-carboxyphenyl)amino)-3-(2,2-difluorocyclopropyl)-1-oxopropan-2-yl)-5-(3-chloro-6-(difluoromethyl)-2-fluorophenyl)pyridine 1-oxide], for which the half-maximal inhibitory concentration (IC50) on Human plasma kallikrein amounted to 14.5 nM. In data set [2], the “aPTT (1.5x)” value amounted to 0.72 µM. Besides, in data set [1], the clearance turned out to be 12.1 mL/min/kg, the mean residence time MRT is 2.3 h and the bioavailability turned out to be 70%.
For the molecule `O=C(O)c1ccc(NC(=O)[C@H](CC2CC2)c2ccc(-c3c(OCC4CC4)ccc(Cl)c3F)c[n+]2[O-])cc1` [Example 13, (R)-4-[(2-{5-[3-chloro-6-(cyclopropylmethoxy)-2-fluorophenyl]-1-oxidopyridin-2-yl}-3-cyclopropylpropanoyl)amino] benzoic acid], the IC50 at Human plasma kallikrein was 984 nM; on human Factor XIa, 6.9 nM. The “aPTT (1.5x)” value in data set [2] turned out to be 11.1 µM.
